# Laboratory results published in patent US20150191469A1, “COMPOUNDS AND METHODS FOR TREATING HIV” (priority 2012, published 2015).
# Tested on: HIV
# Experiment: MT4 assay: antiviral HIV activity (cell protection, cell titer glo readout at 96 hours)
# Assay type: cell-based
# Settings: Human immunodeficiency virus 1, MT4, 96 h, MT4 cells, cell titer glo readout at 96 hours, 10 point dose response; read-out: HIV MT4 Assay IC50
# Method in brief: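 MT-4 cells infected with HIV, with inhibition readout by CellTiter-Glo luminescence at 96 h relative to no-compound control. Cytotoxicity measured in parallel under the same conditions. IC50 from a 10-point, 3-4-fold dilution series spanning >1000-fold, fitted with a four-parameter logistic equation.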
row,IC50,Structure (SMILES)
1,44.6 nM,Cc1nc2c(cc(C(=O)NC[C@H](C)c3ccccc3)n2C)c(-c2cc(F)c3c(c2C)CCCO3)c1[C@H](OC(C)(C)C)C(=O)O [Example 214]
2,30 nM,Cc1nc2c(cc(C(=O)NC[C@@H](C)c3ccccc3)n2C)c(-c2cc(F)c3c(c2C)CCCO3)c1[C@H](OC(C)(C)C)C(=O)O [Example 215]
3,41.3 nM,COc1ccc([C@@H](C)NC(=O)c2cc3c(-c4cc(F)c5c(c4C)CCCO5)c([C@H](OC(C)(C)C)C(=O)O)c(C)nc3n2C)cc1 [Example 216]
4,3380 nM,CC(=O)NC1(c2ccccc2)CCN(C(=O)c2cc3c(-c4cc(F)c5c(c4C)CCCO5)c([C@H](OC(C)(C)C)C(=O)O)c(C)nc3n2C)CC1 [Example 217]
5,47.3 nM,CC1=NC2(CCN(C(=O)c3cc4c(-c5cc(F)c6c(c5C)CCCO6)c([C@H](OC(C)(C)C)C(=O)O)c(C)nc4n3C)CC2)N=C1c1ccccc1 [Example 218]
6,807 nM,Cc1nc2c(cc(C(=O)N3CCN(CC(=O)N(C)c4ccccc4)CC3)n2C)c(-c2cc(F)c3c(c2C)CCCO3)c1[C@H](OC(C)(C)C)C(=O)O [Example 219]
7,1770 nM,Cc1nc2c(cc(C(=O)N3CCN(C(=O)N(C)C)CC3)n2C)c(-c2cc(F)c3c(c2C)CCCO3)c1[C@H](OC(C)(C)C)C(=O)O [Example 220]
8,17600 nM,Cc1nc2c(cc(C(=O)N3CCC4(CC3)C(=O)NC(=O)N4C)n2C)c(-c2cc(F)c3c(c2C)CCCO3)c1[C@H](OC(C)(C)C)C(=O)O [Example 221]
9,121 nM,Cc1nc2c(cc(C(=O)N3CCN(C4CCOCC4)C[C@H]3C)n2C)c(-c2cc(F)c3c(c2C)CCCO3)c1[C@H](OC(C)(C)C)C(=O)O [Example 223]
10,41.4 nM,Cc1ccc(N2CCN(C(=O)c3cc4c(-c5cc(F)c6c(c5C)CCCO6)c([C@H](OC(C)(C)C)C(=O)O)c(C)nc4n3C)CC2)cc1 [Example 224]
11,436 nM,Cc1nc2c(cc(C(=O)N3CCN(C4CCOCC4)CC3)n2C)c(-c2cc(F)c3c(c2C)CCCO3)c1[C@H](OC(C)(C)C)C(=O)O [Example 225]
12,2.8 nM,Cc1nc2c(cc(C(=O)NCc3ccc(N(C)C)cc3)n2C)c(-c2cc(F)c3c(c2C)CCCO3)c1[C@H](OC(C)(C)C)C(=O)O [Example 227]
13,136 nM,CNC(=O)c1cc2c(-c3cc(F)c4c(c3C)CCCO4)c([C@H](OC(C)(C)C)C(=O)O)c(C)nc2n1C [Example 228]
14,12.2 nM,Cc1nc2c(cc(C(=O)NCC3CC3)n2C)c(-c2cc(F)c3c(c2C)CCCO3)c1[C@H](OC(C)(C)C)C(=O)O [Example 229]
15,4.7 nM,Cc1nc2c(cc(C(=O)NCc3ccc(F)cc3)n2C)c(-c2cc(F)c3c(c2C)CCCO3)c1[C@H](OC(C)(C)C)C(=O)O [Example 230]
16,48.7 nM,COCCNC(=O)c1cc2c(-c3cc(F)c4c(c3C)CCCO4)c([C@H](OC(C)(C)C)C(=O)O)c(C)nc2n1C [Example 231]
17,2 nM,Cc1nc2c(cc(C(=O)NCCC(C)(C)C)n2C)c(-c2cc(F)c3c(c2C)CCCO3)c1[C@H](OC(C)(C)C)C(=O)O [Example 232]
18,3.6 nM,COc1ccc(CNC(=O)c2cc3c(-c4cc(F)c5c(c4C)CCCO5)c([C@H](OC(C)(C)C)C(=O)O)c(C)nc3n2C)cc1 [Example 233]
19,44.7 nM,Cc1nc2c(cc(C(=O)NC3CC3)n2C)c(-c2cc(F)c3c(c2C)CCCO3)c1[C@H](OC(C)(C)C)C(=O)O [Example 234]
20,32.4 nM,CSCCNC(=O)c1cc2c(-c3cc(F)c4c(c3C)CCCO4)c([C@H](OC(C)(C)C)C(=O)O)c(C)nc2n1C [Example 235]

row,IC50,Structure (SMILES)
1,4140 nM,Cc1nc2c(cc(C(=O)NCCS(C)(=O)=O)n2C)c(-c2cc(F)c3c(c2C)CCCO3)c1[C@H](OC(C)(C)C)C(=O)O [Example 236]
2,4.3 nM,Cc1nc2c(cc(C(=O)NCC3CCCCC3)n2C)c(-c2cc(F)c3c(c2C)CCCO3)c1[C@H](OC(C)(C)C)C(=O)O [Example 237]
3,3860 nM,Cc1nc2c(cc(C(=O)NCCO)n2C)c(-c2cc(F)c3c(c2C)CCCO3)c1[C@H](OC(C)(C)C)C(=O)O [Example 238]
4,6.5 nM,CCCCNC(=O)c1cc2c(-c3cc(F)c4c(c3C)CCCO4)c([C@H](OC(C)(C)C)C(=O)O)c(C)nc2n1C [Example 239]
5,370 nM,Cc1nc2c(cc(C(=O)NCCN3CCOCC3)n2C)c(-c2cc(F)c3c(c2C)CCCO3)c1[C@H](OC(C)(C)C)C(=O)O [Example 240]
6,21.2 nM,Cc1nc2c(cc(C(=O)NCCC3CCOCC3)n2C)c(-c2cc(F)c3c(c2C)CCCO3)c1[C@H](OC(C)(C)C)C(=O)O [Example 241]
7,79.3 nM,Cc1nc2c(cc(C(=O)NC(C)(C)C)n2C)c(-c2cc(F)c3c(c2C)CCCO3)c1[C@H](OC(C)(C)C)C(=O)O [Example 242]
8,30 nM,Cc1nc2c(cc(C(=O)NCC(C)(C)C)n2C)c(-c2cc(F)c3c(c2C)CCCO3)c1[C@H](OC(C)(C)C)C(=O)O [Example 243]
9,25.3 nM,Cc1nc2c(cc(C(=O)NC(C)C)n2C)c(-c2cc(F)c3c(c2C)CCCO3)c1[C@H](OC(C)(C)C)C(=O)O [Example 244]
10,22.5 nM,Cc1nc2c(cc(C(=O)NCCC(F)(F)F)n2C)c(-c2cc(F)c3c(c2C)CCCO3)c1[C@H](OC(C)(C)C)C(=O)O [Example 245]
11,15.1 nM,Cc1nc2c(cc(C(=O)NCC(C)C)n2C)c(-c2cc(F)c3c(c2C)CCCO3)c1[C@H](OC(C)(C)C)C(=O)O [Example 246]
12,18100 nM,Cc1nc2c(cc(C(=O)NCCCN(C)C)n2C)c(-c2cc(F)c3c(c2C)CCCO3)c1[C@H](OC(C)(C)C)C(=O)O [Example 247]
13,3050 nM,Cc1nc2c(cc(C(=O)NCCN3CCCC3=O)n2C)c(-c2cc(F)c3c(c2C)CCCO3)c1[C@H](OC(C)(C)C)C(=O)O [Example 248]
14,12.1 nM,Cc1nc2c(cc(C(=O)NC3CCCCC3)n2C)c(-c2cc(F)c3c(c2C)CCCO3)c1[C@H](OC(C)(C)C)C(=O)O [Example 249]
15,40.1 nM,Cc1nc2c(cc(C(=O)N3CCCC3)n2C)c(-c2cc(F)c3c(c2C)CCCO3)c1[C@H](OC(C)(C)C)C(=O)O [Example 250]
16,28.3 nM,Cc1nc2c(cc(C(=O)N3CCCCC3)n2C)c(-c2cc(F)c3c(c2C)CCCO3)c1[C@H](OC(C)(C)C)C(=O)O [Example 251]
17,65.2 nM,COCCCNC(=O)c1cc2c(-c3cc(F)c4c(c3C)CCCO4)c([C@H](OC(C)(C)C)C(=O)O)c(C)nc2n1C [Example 252]
18,1.9 nM,Cc1nc2c(cc(C(=O)NCc3c(Cl)cccc3Cl)n2C)c(-c2cc(F)c3c(c2C)CCCO3)c1[C@H](OC(C)(C)C)C(=O)O [Example 253]
19,3.8 nM,Cc1nc2c(cc(C(=O)NCc3c(F)cccc3F)n2C)c(-c2cc(F)c3c(c2C)CCCO3)c1[C@H](OC(C)(C)C)C(=O)O [Example 254]
20,3.8 nM,Cc1nc2c(cc(C(=O)NCc3cccc(Cl)c3)n2C)c(-c2cc(F)c3c(c2C)CCCO3)c1[C@H](OC(C)(C)C)C(=O)O [Example 255]

row,IC50,Structure (SMILES)
1,34.5 nM,Cc1nc2c(cc(C(=O)N(C)C3CCCCC3)n2C)c(-c2cc(F)c3c(c2C)CCCO3)c1[C@H](OC(C)(C)C)C(=O)O [Example 256]
2,2 nM,Cc1nc2c(cc(C(=O)NCc3c(F)cccc3Cl)n2C)c(-c2cc(F)c3c(c2C)CCCO3)c1[C@H](OC(C)(C)C)C(=O)O [Example 257]
3,31.4 nM,Cc1nc2c(cc(C(=O)N3CCC(C)(C)CC3)n2C)c(-c2cc(F)c3c(c2C)CCCO3)c1[C@H](OC(C)(C)C)C(=O)O [Example 258]
4,1.9 nM,Cc1nc2c(cc(C(=O)NCCC3CCCCC3)n2C)c(-c2cc(F)c3c(c2C)CCCO3)c1[C@H](OC(C)(C)C)C(=O)O [Example 259]
5,1.9 nM,Cc1nc2c(cc(C(=O)NCc3ccc4c(c3)OCO4)n2C)c(-c2cc(F)c3c(c2C)CCCO3)c1[C@H](OC(C)(C)C)C(=O)O [Example 260]
6,46.8 nM,CCN(C(=O)c1cc2c(-c3cc(F)c4c(c3C)CCCO4)c([C@H](OC(C)(C)C)C(=O)O)c(C)nc2n1C)C1CCCCC1 [Example 261]
7,103 nM,Cc1nc2c(cc(C(=O)NCCc3cccnc3)n2C)c(-c2cc(F)c3c(c2C)CCCO3)c1[C@H](OC(C)(C)C)C(=O)O [Example 262]
8,3.1 nM,Cc1nc2c(cc(C(=O)NCc3ccc(Cl)cc3)n2C)c(-c2cc(F)c3c(c2C)CCCO3)c1[C@H](OC(C)(C)C)C(=O)O [Example 263]
9,454 nM,Cc1nc2c(cc(C(=O)NCC3COC3)n2C)c(-c2cc(F)c3c(c2C)CCCO3)c1[C@H](OC(C)(C)C)C(=O)O [Example 264]
10,4.8 nM,Cc1nc2c(cc(C(=O)NCc3cccc(F)c3)n2C)c(-c2cc(F)c3c(c2C)CCCO3)c1[C@H](OC(C)(C)C)C(=O)O [Example 265]
11,146 nM,Cc1nc2c(cc(C(=O)NCc3cccnc3)n2C)c(-c2cc(F)c3c(c2C)CCCO3)c1[C@H](OC(C)(C)C)C(=O)O [Example 266]
12,26.1 nM,Cc1nc2c(cc(C(=O)NCc3ccccn3)n2C)c(-c2cc(F)c3c(c2C)CCCO3)c1[C@H](OC(C)(C)C)C(=O)O [Example 267]
13,3.4 nM,Cc1nc2c(cc(C(=O)NCCC(C)C)n2C)c(-c2cc(F)c3c(c2C)CCCO3)c1[C@H](OC(C)(C)C)C(=O)O [Example 268]
14,80.5 nM,COCCN(CCOC)C(=O)c1cc2c(-c3cc(F)c4c(c3C)CCCO4)c([C@H](OC(C)(C)C)C(=O)O)c(C)nc2n1C [Example 269]
15,112 nM,Cc1nc2c(cc(C(=O)N(C)C)n2C)c(-c2cc(F)c3c(c2C)CCCO3)c1[C@H](OC(C)(C)C)C(=O)O [Example 270]
16,1.6 nM,Cc1nc2c(cc(C(=O)NC3Cc4ccccc4C3)n2C)c(-c2cc(F)c3c(c2C)CCCO3)c1[C@H](OC(C)(C)C)C(=O)O [Example 271]
17,294 nM,Cc1nc2c(cc(C(=O)NCCN3CCCCC3)n2C)c(-c2cc(F)c3c(c2C)CCCO3)c1[C@H](OC(C)(C)C)C(=O)O [Example 272]
18,939 nM,Cc1nc2c(cc(C(=O)NCCCN3CCCC3=O)n2C)c(-c2cc(F)c3c(c2C)CCCO3)c1[C@H](OC(C)(C)C)C(=O)O [Example 273]

row,Structure (SMILES),IC50
1,Cc1nc2c(cc(C(=O)N3[C@@H]4CC[C@H]3CC(N3CCOCC3)C4)n2C)c(-c2cc(F)c3c(c2C)CCCO3)c1[C@H](OC(C)(C)C)C(=O)O (some centres unmarked) [Example 222],376 nM
